ChEMBL document CHEMBL6134884, “Identification of JNJ-61803534, a RORγt Inverse Agonist for the Treatment of Psoriasis” (J Med Chem, 2025)

Key:
[1] = target: Voltage-gated inwardly rectifying potassium channel KCNH2 (Homo sapiens, UniProt Q12809); assay: Inhibition of hERG by Q-patch clamp method; assay type: toxicity
Cytochrome P450 3A4 [2] = target: T1, Cytochrome P450 3A4 (Homo sapiens, UniProt P08684); assay: Induction of CYP3A4 in human hepatocytes at 10 uM relative to control; assay type: ADME, cell-based, Hepatocyte
T1 sequence (P08684 whole entry): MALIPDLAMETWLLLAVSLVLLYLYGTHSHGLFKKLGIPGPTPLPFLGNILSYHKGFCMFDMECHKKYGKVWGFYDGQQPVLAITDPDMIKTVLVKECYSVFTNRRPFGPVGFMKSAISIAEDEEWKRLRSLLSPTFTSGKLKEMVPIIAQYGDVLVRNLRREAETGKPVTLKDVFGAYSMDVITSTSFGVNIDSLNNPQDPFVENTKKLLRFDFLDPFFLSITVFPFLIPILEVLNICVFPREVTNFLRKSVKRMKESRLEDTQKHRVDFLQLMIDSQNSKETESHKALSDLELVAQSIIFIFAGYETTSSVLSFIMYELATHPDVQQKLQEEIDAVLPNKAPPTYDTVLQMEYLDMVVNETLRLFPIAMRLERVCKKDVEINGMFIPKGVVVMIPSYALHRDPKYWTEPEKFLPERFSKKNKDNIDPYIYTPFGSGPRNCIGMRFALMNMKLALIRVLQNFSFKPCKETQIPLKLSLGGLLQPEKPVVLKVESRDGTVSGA

[3] = Oral bioavailability in male Sprague-Dawley rat at 5 mg/kg measured 24 hrs post dose by LC-MS/MS analysis; assay type: ADME, organism-based; details: in vivo
[4] = Genotoxicity in Salmonella typhimurium by Ames II test; assay type: toxicity; details: salmonella enterica subsp. enterica serovar typhimurium
hERG = hERG (Homo sapiens, UniProt Q12809); assay: Inhibition of hERG at 10 uM by Q-patch clamp method relative to control; assay type: toxicity
Chain of hERG (Q12809 whole entry): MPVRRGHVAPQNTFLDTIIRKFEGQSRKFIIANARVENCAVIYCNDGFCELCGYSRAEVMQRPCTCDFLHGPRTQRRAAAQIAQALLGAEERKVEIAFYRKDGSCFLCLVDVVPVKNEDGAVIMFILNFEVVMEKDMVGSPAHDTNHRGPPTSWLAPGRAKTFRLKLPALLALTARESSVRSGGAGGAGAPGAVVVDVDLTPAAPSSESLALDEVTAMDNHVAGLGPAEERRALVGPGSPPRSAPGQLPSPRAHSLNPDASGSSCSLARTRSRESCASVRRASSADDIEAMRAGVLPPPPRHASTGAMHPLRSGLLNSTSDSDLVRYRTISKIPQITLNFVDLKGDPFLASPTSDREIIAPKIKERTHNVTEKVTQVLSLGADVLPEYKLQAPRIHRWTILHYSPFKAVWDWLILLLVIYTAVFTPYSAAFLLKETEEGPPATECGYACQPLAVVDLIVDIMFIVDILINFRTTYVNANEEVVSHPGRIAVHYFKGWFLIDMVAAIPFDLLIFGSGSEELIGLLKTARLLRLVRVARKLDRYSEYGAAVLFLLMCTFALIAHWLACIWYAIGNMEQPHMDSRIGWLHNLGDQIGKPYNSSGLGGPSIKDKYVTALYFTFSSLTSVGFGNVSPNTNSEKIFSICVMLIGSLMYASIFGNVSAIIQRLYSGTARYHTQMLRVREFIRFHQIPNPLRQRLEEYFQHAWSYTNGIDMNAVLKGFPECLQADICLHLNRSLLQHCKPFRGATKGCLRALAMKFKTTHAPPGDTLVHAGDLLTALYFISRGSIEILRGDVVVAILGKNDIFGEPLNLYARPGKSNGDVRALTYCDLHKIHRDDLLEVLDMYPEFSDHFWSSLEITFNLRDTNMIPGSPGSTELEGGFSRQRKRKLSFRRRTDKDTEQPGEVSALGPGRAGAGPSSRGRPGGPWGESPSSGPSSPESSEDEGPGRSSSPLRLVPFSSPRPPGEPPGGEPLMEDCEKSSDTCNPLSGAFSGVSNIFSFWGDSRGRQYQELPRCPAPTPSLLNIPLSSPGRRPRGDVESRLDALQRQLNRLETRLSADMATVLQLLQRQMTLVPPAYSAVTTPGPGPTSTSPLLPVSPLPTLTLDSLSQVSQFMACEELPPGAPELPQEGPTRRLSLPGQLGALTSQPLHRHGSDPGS

Cytochrome P450 2C8 = target: T2, Cytochrome P450 2C8 (Homo sapiens, UniProt P10632); assay: Inhibition of human CYP2C8; assay type: ADME
T2 sequence (P10632 whole entry): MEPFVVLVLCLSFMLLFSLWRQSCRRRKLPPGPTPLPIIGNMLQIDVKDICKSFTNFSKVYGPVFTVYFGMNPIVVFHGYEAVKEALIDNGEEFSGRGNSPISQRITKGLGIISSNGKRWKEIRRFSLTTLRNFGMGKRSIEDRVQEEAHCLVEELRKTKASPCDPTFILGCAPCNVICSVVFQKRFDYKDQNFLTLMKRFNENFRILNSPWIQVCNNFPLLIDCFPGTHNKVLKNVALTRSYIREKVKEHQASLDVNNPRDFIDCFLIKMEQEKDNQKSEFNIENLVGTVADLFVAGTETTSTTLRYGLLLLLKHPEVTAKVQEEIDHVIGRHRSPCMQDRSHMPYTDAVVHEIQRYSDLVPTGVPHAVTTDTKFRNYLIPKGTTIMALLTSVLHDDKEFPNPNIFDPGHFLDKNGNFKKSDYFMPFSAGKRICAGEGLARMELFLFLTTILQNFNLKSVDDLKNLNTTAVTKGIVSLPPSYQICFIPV

[5] = Metabolic stability in mouse liver microsomes assessed as half life; assay type: ADME, Microsome
[6] = Half life in male Sprague-Dawley rat at 5 mg/kg, po or 1 mg/kg, iv measured 24 hrs post dose by LC-MS/MS analysis; assay type: ADME, organism-based; details: in vivo
[7] = Solubility of compound in SGF; assay type: physicochemical
Cytochrome P450 2C19 = Cytochrome P450 2C19 (Homo sapiens, UniProt P33261); assay: Inhibition of human CYP2C19; assay type: ADME
Chain of Cytochrome P450 2C19 (P33261 whole entry): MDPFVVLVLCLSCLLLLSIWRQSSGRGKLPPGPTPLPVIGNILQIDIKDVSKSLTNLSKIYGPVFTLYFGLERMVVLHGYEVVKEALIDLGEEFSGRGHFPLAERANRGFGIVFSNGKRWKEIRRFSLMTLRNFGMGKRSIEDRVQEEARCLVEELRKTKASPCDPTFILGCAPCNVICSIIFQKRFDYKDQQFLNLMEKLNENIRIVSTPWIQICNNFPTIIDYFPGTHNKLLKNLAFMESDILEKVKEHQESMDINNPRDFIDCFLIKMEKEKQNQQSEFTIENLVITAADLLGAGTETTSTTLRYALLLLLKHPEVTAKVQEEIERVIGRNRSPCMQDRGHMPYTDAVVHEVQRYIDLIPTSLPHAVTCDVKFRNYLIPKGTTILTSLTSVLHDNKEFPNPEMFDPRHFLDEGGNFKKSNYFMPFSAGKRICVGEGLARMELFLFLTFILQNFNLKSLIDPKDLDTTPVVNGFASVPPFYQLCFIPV

[8] = Plasma protein binding in mouse assessed as unbound fraction; assay type: ADME, cell-free
Cytochrome P450 3A4 [9] = target: T1, Cytochrome P450 3A4; assay: Inhibition of human CYP3A4; assay type: ADME
[10] = Half life in male overnight fasted Beagle dog at 5 mg/kg, po or 1 mg/kg, iv measured 24 hrs post dose by LC-MS/MS analysis; assay type: ADME, organism-based, Canis lupus familiaris; details: in vivo
[11] = target: T3, Nuclear receptor subfamily 1 group I member 2 (Homo sapiens, UniProt O75469); assay: Activation of human PXR at 1 uM relative to control; assay type: toxicity
T3 sequence (O75469 whole entry): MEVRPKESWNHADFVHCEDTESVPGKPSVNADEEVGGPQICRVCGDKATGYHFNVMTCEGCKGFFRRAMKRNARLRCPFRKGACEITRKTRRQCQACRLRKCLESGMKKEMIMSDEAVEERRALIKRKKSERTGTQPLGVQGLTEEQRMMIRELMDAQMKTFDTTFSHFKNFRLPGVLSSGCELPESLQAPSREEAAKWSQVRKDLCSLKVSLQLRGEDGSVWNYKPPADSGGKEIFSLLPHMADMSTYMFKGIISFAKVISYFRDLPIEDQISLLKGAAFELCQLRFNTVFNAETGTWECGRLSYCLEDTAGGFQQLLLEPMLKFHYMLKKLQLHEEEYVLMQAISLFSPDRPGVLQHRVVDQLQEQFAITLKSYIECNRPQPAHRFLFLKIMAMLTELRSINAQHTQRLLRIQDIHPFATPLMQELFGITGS

[12] = target: T4, Nuclear receptor ROR-gamma (Mus musculus, UniProt P51450); assay: Inverse agonist activity at RORgammat in mouse whole blood assessed as IL-17A production incubated for 1 hrs by ELISA analysis
T4 sequence (P51450 whole entry): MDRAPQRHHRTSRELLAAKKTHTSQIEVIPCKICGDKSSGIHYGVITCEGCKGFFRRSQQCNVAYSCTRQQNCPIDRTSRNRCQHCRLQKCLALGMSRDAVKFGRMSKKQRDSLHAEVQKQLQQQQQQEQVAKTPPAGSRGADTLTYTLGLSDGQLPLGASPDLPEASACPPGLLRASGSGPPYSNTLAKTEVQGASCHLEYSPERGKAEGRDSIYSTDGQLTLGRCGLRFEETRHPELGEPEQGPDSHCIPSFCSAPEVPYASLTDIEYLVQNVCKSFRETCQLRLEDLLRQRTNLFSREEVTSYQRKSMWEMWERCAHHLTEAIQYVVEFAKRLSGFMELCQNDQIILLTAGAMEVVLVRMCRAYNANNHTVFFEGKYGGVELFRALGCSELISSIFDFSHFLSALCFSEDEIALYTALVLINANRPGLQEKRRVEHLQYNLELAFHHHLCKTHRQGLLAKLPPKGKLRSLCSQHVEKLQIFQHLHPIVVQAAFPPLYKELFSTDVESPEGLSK

[13] = target: T5, Nuclear receptor subfamily 1 group I member 3 (Homo sapiens, UniProt Q14994); assay: Antagonist activity at CAR (unknown origin) up to 1.5 uM by mammalian 1-hybrid assay
T5 sequence (Q14994 whole entry): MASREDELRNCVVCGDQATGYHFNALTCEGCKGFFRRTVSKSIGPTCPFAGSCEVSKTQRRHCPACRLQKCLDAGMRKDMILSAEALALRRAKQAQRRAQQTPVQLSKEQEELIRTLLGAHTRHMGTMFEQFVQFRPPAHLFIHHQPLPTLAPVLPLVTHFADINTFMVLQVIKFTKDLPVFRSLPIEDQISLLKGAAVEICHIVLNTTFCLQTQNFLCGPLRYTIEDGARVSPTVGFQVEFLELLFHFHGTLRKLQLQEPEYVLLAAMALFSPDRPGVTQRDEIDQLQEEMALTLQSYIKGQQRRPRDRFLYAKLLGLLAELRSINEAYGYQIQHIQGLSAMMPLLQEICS

[14] = Aqueous solubility of the compound at pH 7; assay type: physicochemical; details: aqueous solution
Cytochrome P450 3A4 [15] = target: T1, Cytochrome P450 3A4; assay: Time dependent inhibition of CYP3A4 (unknown origin); assay type: ADME
[16] = Inverse agonist activity at RORgammat in rat whole blood assessed as IL-17A production incubated for 1 hrs by ELISA analysis; assay type: tissue-based
[17] = Aqueous solubility of the compound at pH 2; assay type: physicochemical; details: aqueous solution
Cytochrome P450 2D6 = Cytochrome P450 2D6 (Homo sapiens, UniProt P10635); assay: Inhibition of human CYP2D6; assay type: ADME
Chain of Cytochrome P450 2D6 (P10635 whole entry): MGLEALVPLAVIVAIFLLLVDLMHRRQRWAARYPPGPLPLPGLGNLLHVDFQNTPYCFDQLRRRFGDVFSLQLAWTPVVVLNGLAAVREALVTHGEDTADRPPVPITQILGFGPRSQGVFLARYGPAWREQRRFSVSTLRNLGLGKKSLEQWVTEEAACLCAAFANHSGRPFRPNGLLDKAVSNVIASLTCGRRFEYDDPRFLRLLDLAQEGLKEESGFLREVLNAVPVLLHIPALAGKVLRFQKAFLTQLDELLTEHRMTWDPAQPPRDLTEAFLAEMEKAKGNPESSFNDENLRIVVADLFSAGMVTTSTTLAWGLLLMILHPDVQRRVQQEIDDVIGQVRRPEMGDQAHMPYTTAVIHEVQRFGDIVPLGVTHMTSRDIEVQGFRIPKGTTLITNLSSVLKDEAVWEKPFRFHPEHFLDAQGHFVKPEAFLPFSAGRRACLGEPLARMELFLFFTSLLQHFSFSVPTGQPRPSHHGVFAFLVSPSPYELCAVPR

[18] = Oral bioavailability in male overnight fasted Beagle dog at 5 mg/kg measured 24 hrs post dose by LC-MS/MS analysis; assay type: ADME, organism-based, Canis lupus familiaris; details: in vivo
[19] = Solubility of compound in FaSSIF; assay type: physicochemical
Cytochrome P450 2C9 = Cytochrome P450 2C9 (Homo sapiens, UniProt P11712); assay: Inhibition of human CYP2C9; assay type: ADME
Chain of Cytochrome P450 2C9 (P11712 whole entry): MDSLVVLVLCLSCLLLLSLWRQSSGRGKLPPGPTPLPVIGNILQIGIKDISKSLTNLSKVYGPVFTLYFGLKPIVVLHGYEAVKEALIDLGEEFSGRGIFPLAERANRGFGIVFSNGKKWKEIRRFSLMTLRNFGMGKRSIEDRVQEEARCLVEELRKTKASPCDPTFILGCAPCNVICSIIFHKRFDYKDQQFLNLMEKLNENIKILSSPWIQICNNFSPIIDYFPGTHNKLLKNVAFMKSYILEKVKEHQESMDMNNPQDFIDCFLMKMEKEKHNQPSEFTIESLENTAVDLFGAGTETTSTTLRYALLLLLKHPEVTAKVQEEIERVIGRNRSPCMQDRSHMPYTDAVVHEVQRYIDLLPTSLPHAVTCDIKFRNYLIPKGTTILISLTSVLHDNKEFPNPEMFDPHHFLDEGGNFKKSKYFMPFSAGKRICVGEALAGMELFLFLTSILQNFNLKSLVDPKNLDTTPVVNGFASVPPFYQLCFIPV

[20] = target: T5, Nuclear receptor subfamily 1 group I member 3; assay: Agonist activity at CAR (unknown origin) up to 1.5 uM by mammalian 1-hybrid assay
[21] = Plasma protein binding in dog assessed as unbound fraction; assay type: ADME, cell-free, Canis lupus familiaris
[22] = Plasma protein binding in human assessed as unbound fraction; assay type: ADME, cell-free
[23] = Volume of distribution at steady state in male overnight fasted Beagle dog at 5 mg/kg, po or 1 mg/kg, iv measured 24 hrs post dose by LC-MS/MS analysis; assay type: ADME, organism-based, Canis lupus familiaris; details: in vivo
[24] = Plasma protein binding in rat assessed as unbound fraction; assay type: ADME, cell-free
[25] = Metabolic stability in human liver microsomes assessed as half life; assay type: ADME, Microsome
PXR [26] = target: T6, PXR (Homo sapiens, UniProt O75469); assay: Activation of human PXR at 5 uM relative to control; assay type: toxicity; details: read-out: Activity
T6 sequence (O75469 whole entry): T3 sequence (O75469 whole entry)

[27] = Volume of distribution at steady state in male Sprague-Dawley rat at 5 mg/kg, po or 1 mg/kg, iv measured 24 hrs post dose by LC-MS/MS analysis; assay type: ADME, organism-based; details: in vivo
PXR [28] = target: T6, PXR; assay: Activation of human PXR at 10 uM relative to control; assay type: toxicity; details: read-out: Activity
[29] = Metabolic stability in rat liver microsomes assessed as half life; assay type: ADME, Microsome

Chain of Voltage-gated inwardly rectifying potassium channel KCNH2 (Q12809 whole entry): as the sequence (Q12809 whole entry) above

## C[C@H]1CCCN1C(=O)c1nc(C(=O)NCC(C)(C)O)sc1-c1ccc(C(O)(C(F)(F)F)C(F)(F)F)c(Cl)c1Cl
[1]
  IC50: 29.5 µM
Cytochrome P450 3A4 [2]
  Activity: 26%
[3]
  bioavailability: 69%
[4]
  Activity: Non-toxic
hERG
  inhibition at 10 µM: 52%
Cytochrome P450 2C8
  IC50: 18 µM
[5]
  half-life: > 3 h
[6]
  half-life: 4.1 h
[7]
  solubility: < 4 µM
Cytochrome P450 2C19
  IC50: 31 µM
[8]
  fraction unbound: 0.008
Cytochrome P450 3A4 [9]
  IC50: 20 µM
[10]
  half-life: 26.2 h
[11]
  Activity: 18%
[12]
  IC50: 0.21 µM
[13]
  Activity: Not_active
[14]
  solubility: < 4 µM
Cytochrome P450 3A4 [15]
  TDI: Not_active
[16]
  IC50: 0.12 µM
[17]
  solubility: < 4 µM
Cytochrome P450 2D6
  IC50: 3.8 µM
[18]
  bioavailability: 100%
[19]
  solubility: < 4 µM
Cytochrome P450 2C9
  IC50: 4.4 µM
[20]
  Activity: Not_active
[21]
  fraction unbound: 0.009
[22]
  fraction unbound: 0.008
[23]
  Vdss: 1.5 L/kg
[24]
  fraction unbound: 0.012
[25]
  half-life: > 3 h
PXR [26]
  activity at 5 µM: 21%
[27]
  Vdss: 1.3 L/kg
PXR [28]
  activity at 10 µM: 42%
[29]
  half-life: > 3 h
